The test system of data set [1] is Hamster. The data set can be described thus: Toxicity in hamster at 50 mg/kg. In kind it is organism-based. On the set-up: dose 50 mg/kg. The conditions noted are these: cricetinae, in vivo.
Data set [2] concerns Leishmania donovani. In words: Inhibition of Leishmania donovani HOM/IN/80/DD8 in hamster at 50 mg/kg, ip after 7 days. In kind it is functional. Conditions: for inhibition in vivo at 50 mg/kg: HOM/IN/80/DD8, ip, 168 h, route intraperitoneal.
Data set [3] has as its system Leishmania donovani. The data set can be described thus: Inhibition of Leishmania donovani HOM/IN/80/DD8 in hamster at 50 mg/kg, po after 28 days. The conditions noted are these: HOM/IN/80/DD8, 672 h. In kind it is functional.
The subject of data set [4] is Leishmania donovani. The data set can be described thus: Inhibition of Leishmania donovani HOM/IN/80/DD8 in hamster at 50 mg/kg, po after 7 days. In kind it is functional. The conditions noted are these: HOM/IN/80/DD8, 168 h.
Data set [5] has as its system Leishmania donovani. In words: Inhibition of Leishmania donovani HOM/IN/80/DD8 in hamster at 50 mg/kg, ip after 28 days. The format is functional. The conditions noted are these: HOM/IN/80/DD8, ip, 672 h, route intraperitoneal.
The subject of data set [6] is Leishmania donovani. The data set can be described thus: Inhibition of Leishmania donovani HOM/IN/80/DD8 in hamster at 12.5 mg/kg, po after 7 days. The format is functional. Conditions: HOM/IN/80/DD8, 168 h.
In data set [7] the test system is Leishmania donovani. In words: Inhibition of Leishmania donovani HOM/IN/80/DD8 in hamster at 12.5 mg/kg, po after 28 days. In kind it is functional. The conditions noted are these: HOM/IN/80/DD8, 672 h.

The results in this text go back to ChEMBL document CHEMBL1144578, “Chemotherapy of leishmaniasis Part VI: synthesis and bioevaluation of some novel terpenyl S,N- and N,N-acetals” (Eur J Med Chem, 2007).

A word on the inhibition in vivo: it is how much of the control response was suppressed. Read a low inhibition in vivo as a response near the control.

Activity calls are given as the source filed them. The calls are words filed in the database; no cut-off is given here.

With `CC1=C(/C=C/C(=O)C=C(N2CCNCC2)N2CCNCC2)C(C)(C)CCC1`, in data set [1], the Activity entry is “Toxic”.
`CC1=C(/C=C/C(=O)C=C(N2CCOCC2)N2CCOCC2)C(C)(C)CCC1`: the result in data set [2] was inactive.
For `CS/C(=C/C(=O)/C=C/C1=C(C)CCCC1(C)C)Nc1ccc(F)cc1`, in data set [2], the inhibition in vivo at 50 mg/kg came out at 31%.
Consider `CS/C(=C/C(=O)/C=C/C1=C(C)CCCC1(C)C)Nc1ccccc1`, for which the result in data set [2] was inactive.
Regarding `COc1ccc(N/C(=C\C(=O)/C=C/C2=C(C)CCCC2(C)C)SC)cc1`, the inhibition in vivo at 50 mg/kg in data set [2] was 52%.
With `CC1=C(/C=C/C(=O)C=C2NCCN2)C(C)(C)CCC1`, the inhibition in vivo at 50 mg/kg in data set [3] came out at 71%; in data set [4], 40%; in data set [2] it was 30%; in data set [5], 65%.
In data set [2], `CS/C(=C/C(=O)/C=C/C1=C(C)CCCC1(C)C)Nc1cccc(F)c1` returned an inhibition in vivo at 50 mg/kg of 53%.
Take `CCCCCCCCCCCCCCCCOP(=O)([O-])OCC[N+](C)(C)C` [MILTEFOSINE]: the inhibition in vivo at 12.5 mg/kg in data set [6] was 94%; in data set [7] it was 69%.
In data set [2], `CS/C(=C/C(=O)/C=C/C1=C(C)CCCC1(C)C)NC1CCCCC1` showed an inhibition in vivo at 50 mg/kg of 46%.
`CS/C(=C/C(=O)/C=C/C1=C(C)CCCC1(C)C)Nc1ccc(Cl)cc1` returned an inhibition in vivo at 50 mg/kg in data set [2] of 18%.
As to `CCN(/C(=C\C(=O)/C=C/C1=C(C)CCCC1(C)C)SC)c1ccccc1`, the result in data set [2] was inactive.
